In patent US9345703B2, “Kappa opioid receptor effectors and uses thereof” (University of Kansas, priority 2011, dated 2016):
Marks after values point to notes of the source that are not given here.

How the values were obtained:
[1] = target: T1, KOR (Homo sapiens, UniProt P41145); experiment: KOR1 DISCOVERX β-Arrestin […] assay, antagonist mode (KOR DRX); format: cell-based; conditions: antagonist; average; read-out: Potency, Target KOR DRX
Description: (§1) In this campaign, two assay platforms were employed to evaluate KOR activity and selectivity: the KOR1 DISCOVERX β-Arrestin […] assay and an imaging based β-arrestin translocation assay for confirmatory and selectivity assays. The KOR1 DISCOVERX β-Arrestin […] assay is a commercial platform for direct measurement of GPCR (G protein-coupled receptor) activation by detection of β-Arrestin binding to the KOR. […] In cells that stably express these fusion proteins, ligand stimulation results in the recruitment of β-Arrestin by the GPCR. This interaction encourages the complementation of the two β-galactosidase fragments resulting in the formation of a functional enzyme that converts substrate in the assay medium to a detectable signal. The imaging based high-content β-arrestin translocation assay is based upon the redistribution of β-Arrestin linked to green fluorescent protein (GFP) to the cell surface and detection (Barak, et al. (1997) J. Biol. Chem. 272:27497-27500).
(§2) Initially, a portion (approximately 290,000 compounds) of the MLSMR compound collection was tested in the KOR1 DISCOVERX β-arrestin primary kappa opioid (KOP) agonist and antagonist screens (PUBCHEM AID 1777 and 1778, respectively) at a single concentration point (10 μM). […] These compounds were concurrently tested in a β-galactosidase counterscreen assay (PUBCHEM AID 1966) to assess the possibility that these compounds might inhibit the reporting enzyme. […] The KOR:DOR:MOR selectivity of the compounds was determined using the analogous β-arrestin translocation assays for the DOR (PUBCHEM AID 2370 and 2357, for agonists and antagonist, respectively) and the MOR (PUBCHEM AID 2352 and 2420, for agonists and antagonists, respectively).

[2] = target: T1, KOR; experiment: High content imaging β-arrestin translocation assay, KOR antagonist (KOR HCS); format: cell-based; conditions: antagonist; average; read-out: Potency, Target KOR HCS
Description: as §1, §2

[3] = target: MOR (Homo sapiens, UniProt P35372); experiment: High content imaging β-arrestin translocation assay, MOR antagonist (MOR HCS); format: cell-based
Description: as §1, §2

[4] = target: DOR (Homo sapiens, UniProt P41143); experiment: High content imaging β-arrestin translocation assay, DOR antagonist (DOR HCS); format: cell-based
Description: as §1, §2

[5] = target: T2, KOP receptor (Homo sapiens, UniProt P41145); experiment: 35S-GTPγS coupling, inhibition; format: biochemical
[6] = target: T2, KOP receptor; experiment: ERK 1/2 activation, inhibition; format: cell-based

T2 sequence (P41145 whole entry): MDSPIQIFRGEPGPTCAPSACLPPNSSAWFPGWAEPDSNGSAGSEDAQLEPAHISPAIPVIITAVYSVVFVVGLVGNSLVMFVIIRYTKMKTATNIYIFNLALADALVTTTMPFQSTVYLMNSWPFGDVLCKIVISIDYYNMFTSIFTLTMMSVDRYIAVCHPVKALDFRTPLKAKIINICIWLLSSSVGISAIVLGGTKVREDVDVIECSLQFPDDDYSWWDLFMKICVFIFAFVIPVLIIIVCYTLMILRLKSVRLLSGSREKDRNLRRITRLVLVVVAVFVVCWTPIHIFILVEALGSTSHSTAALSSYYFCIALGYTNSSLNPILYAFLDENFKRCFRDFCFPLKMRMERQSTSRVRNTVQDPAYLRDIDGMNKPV
T1 sequence (P41145 whole entry, the tested form may be a part): as the sequence (P41145 whole entry) above
Chain of MOR (P35372 whole entry): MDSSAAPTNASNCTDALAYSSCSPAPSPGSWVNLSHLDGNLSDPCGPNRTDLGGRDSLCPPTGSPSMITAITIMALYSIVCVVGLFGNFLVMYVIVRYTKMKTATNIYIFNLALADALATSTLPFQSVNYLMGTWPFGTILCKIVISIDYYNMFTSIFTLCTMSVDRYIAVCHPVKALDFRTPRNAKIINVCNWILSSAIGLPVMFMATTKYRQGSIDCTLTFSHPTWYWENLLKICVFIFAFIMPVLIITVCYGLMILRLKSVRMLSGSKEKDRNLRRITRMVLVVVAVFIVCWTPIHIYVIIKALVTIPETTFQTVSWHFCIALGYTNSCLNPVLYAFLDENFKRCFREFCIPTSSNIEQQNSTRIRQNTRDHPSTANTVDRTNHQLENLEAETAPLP
Chain of DOR (P41143 whole entry): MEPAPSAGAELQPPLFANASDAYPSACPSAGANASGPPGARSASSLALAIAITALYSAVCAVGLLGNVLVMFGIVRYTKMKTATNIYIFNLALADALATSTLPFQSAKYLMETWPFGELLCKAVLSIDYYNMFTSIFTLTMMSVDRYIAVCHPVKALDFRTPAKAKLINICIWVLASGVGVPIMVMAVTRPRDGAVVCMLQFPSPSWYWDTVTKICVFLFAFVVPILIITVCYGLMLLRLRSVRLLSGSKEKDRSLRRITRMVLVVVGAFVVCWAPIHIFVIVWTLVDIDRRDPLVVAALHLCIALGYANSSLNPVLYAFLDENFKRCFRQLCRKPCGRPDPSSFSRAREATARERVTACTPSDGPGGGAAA

## COc1ccc(N2CCN(CCCNC(=O)Cn3c(=O)c4cccn4c4ccccc43)CC2)cc1 [Compound 1{1}]
[1]
  IC50: 1.97 µM
[2]
  IC50: 1.31 µM
[3]
  IC50: > 32 µM
[4]
  IC50: > 32 µM
[5]
  Imax (% NBNI): 122 ± 5^a % NBNI
[5]; n ≧ 3 curves in duplicate
  IC50: 0.0957 ± 0.048 µM
[6]
  Imax (% NBNI): 101 ± 3^ % NBNI
[6]; n ≧ 3 curves, replicates of 6
  IC50: 0.065 ± 0.0092 µM
